In patent publication US7829573B2, “Therapeutic combinations of antihypertensive and antiangiogenics agents” (AstraZeneca AB, priority 2000, dated 2010):
Like-named read-outs stand apart in the source and are kept apart here.

Legend:
[1] = Measurement of blood pressure in conscious rats by radio telemetry; assay type: in vivo, rat
Procedure: Blood pressure was measured using the Data Sciences radio-telemetry equipment (Data Sciences International, Saint Paul, Minn., USA). This provides a means of measuring the blood pressure (BP), heart rate and activity of a conscious unrestrained rat remotely. The measurements obtained using this system are free from the stresses induced by surgery and restraint. The system comprises a pressure transducer (TA11PA-C40) (the ‘implant’) implanted in the abdomen of a rat which transmits a radio signal indicating the pressure in the aorta of the animal. The signal is detected by a receiver RA1010) placed under the plastic cage which houses the animal.
Rats were anaesthetised with “Fluothane™” inhalation anaesthetic. The abdomen of the rat was shaved and the skin coated with a topical disinfectant. […]
Blood pressure data was recorded from each animal every 10 minutes throughout the study. […] This average day time blood pressure measurement for each rat was calculated over a 4 day period immediately prior to the commencement of compound dosing.
For the next 4 days (i.e. days 11 to 14 of compound dosing) the rats were dosed with the ACE inhibitor captopril at 30 mg/kg p.o. once daily in addition to the quinazoline compound. The average blood pressure of each rat was calculated daily and the difference between the daily calculated pressure and the starting pressure was expressed.

[2] = conscious rats, VEGF 250 μg/kg; cited from earlier work
coronary arteries = settings: dog, in vitro; cited from earlier work
[3] = anaesthetised rats, 15 μg/kg bFGF; cited from earlier work

With `C[C@H](CS)C(=O)N1CCC[C@H]1C(=O)O` [captopril, reference compound] as the molecule, how does the “effect of addition of ACE inhibitor on the increase in blood pressure caused by the VEGF receptor tyrosine kinase inhibitor” value ([1]; captopril 30 mg/kg p.o. once daily on days 11 to 14 in addition to the quinazoline compound 12.5 mg/kg p.o.) read?
The value was “reversed”.

With `COc1cc2c(Nc3ccc(Br)cc3F)ncnc2cc1OCC1CCN(C)CC1` [4-(4-bromo-2-fluoroanilino)-6-methoxy-7-(1-methylpiperidin-4-ylmethoxy)quinazoline] as the molecule, how does the “effect on the diastolic blood pressure in rats” value ([1]; conscious male wistar rats, 12.5 mg/kg p.o. once daily for 10 days, 3 dosed rats and a control rat (FIG. 1)) read?
Its value is “increase in blood pressure”.

With VEGF as the molecule, how does the “time to return to normal blood pressure” value [2] read?
The value was ≤ 20 min.

What about the “effect on coronary arteries” value (coronary arteries) of the same molecule?
The value was “dilate coronary arteries”.

With “bFGF: basic fibroblast growth factor, polypeptide with endothelial cell growth promoting activity” as the molecule, how does the “time to return to normal blood pressure” value [3] read?
Its value is ≤ 30 min.
